Where only a bound is given, the exact number is not on record here.

For this experiment, the target named is T1, human IDO1 (Homo sapiens, UniProt P14902).
T1 construct: expressed in transfected cells
T1 sequence (P14902 whole entry): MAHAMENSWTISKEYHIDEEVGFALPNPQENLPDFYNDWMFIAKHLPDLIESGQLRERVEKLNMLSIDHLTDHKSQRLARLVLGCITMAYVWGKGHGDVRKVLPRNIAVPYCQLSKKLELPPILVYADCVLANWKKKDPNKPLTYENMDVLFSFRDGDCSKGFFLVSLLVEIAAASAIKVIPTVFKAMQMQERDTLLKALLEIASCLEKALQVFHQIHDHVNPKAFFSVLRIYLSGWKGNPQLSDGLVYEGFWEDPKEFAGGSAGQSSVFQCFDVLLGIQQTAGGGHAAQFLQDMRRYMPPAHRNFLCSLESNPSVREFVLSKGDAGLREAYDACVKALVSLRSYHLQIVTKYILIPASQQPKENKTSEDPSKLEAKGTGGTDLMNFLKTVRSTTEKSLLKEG
Description: HEK293 human IDO1 cell-based IDO inhibition assay. The settings on record: read-out: HEK Human IDO-1 Potency. The procedure:
1HEK293 cells were transfected with a pCDNA-based mammalian expression vector harboring human IDO1 cDNA (NM 002164.2) by electroporation. They were cultured in medium (DMEM with 10% FBS) containing 1 mg/ml G418 for two weeks. Clones of HEK293 cells that stably expressed human IDO1 protein were selected and expanded for IDO inhibition assay.
The human IDOL/HEK293 cells were seeded at 10,000 cells per 50 μL per well with RPMI/phenol red free media contains 10% FBS in a 384-well black wall clear bottom tissue culture plate (Matrix Technologies LLC) 100 nL of certain concentration of compound was then added to each well using ECHO liquid handling systems. The cells were incubated for 20 hours in 37° C. incubator with 5% CO2.
The compound treatments were stopped by adding Trichloroacetic Acid (Sigma-Aldrich) to a final concentration at 0.2%. The cell plate was further incubated at 50° C. for 30 minute. The equal volume supernatant (20 μL) and 0.2% (w/v) Ehrlich reagent (4-dimethylaminobenzaldehyde, Sigma-Aldrich) in glacial acetic acid were mixed in a new clear bottom 384-well plate. This plate was then incubated at room temperature for 30 minute. The absorbance at 490 nm was measured on Envision plate reader.
Turning to `CCC(C(=O)Nc1ccc(Cl)cc1)[C@H]1CC[C@@H](Oc2ccnc3ccc(C(F)(F)F)cc23)CC1` (single isomer, unassigned) [Example 89b, N-(4-Chlorophenyl)-2-((cis)-4-((6-(trifluoromethyl)quinolin-4-yl)oxy)cyclohexyl)butanamide], the IC50 is greater than 250 nM.

As for `CC(C(=O)Nc1ccc(Cl)cc1)N1CCC(Oc2ccc3nccc(Cl)c3c2)CC1` (single isomer, unassigned) [Example 93], the IC50 was less than 50 nM.

As to `CC(C(=O)Nc1ccc(Cl)cc1)N1CCC(Oc2ccc3nccc(Cl)c3c2)CC1` (single isomer, unassigned) [Example 94], the IC50 was less than 250 nM.

As to `CC(C(=O)Nc1ccc(Cl)cc1)N1CCN(c2ccnc3ccc(F)cc23)CC1` (single isomer, unassigned) [Example 129, N-(4-Chlorophenyl)-2-(4-(6-fluoroquinolin-4-yl)piperazin-1-yl)propanamide], the IC50 was less than 250 nM.

`CC(C(=O)Nc1ccc(Cl)cc1)N1CCN(c2ccnc3ccc(F)cc23)CC1` (single isomer, unassigned) [Example 130, N-(4-Chlorophenyl)-2-(4-(6-fluoroquinolin-4-yl)piperazin-1-yl)propanamide]: the IC50 was greater than 250 nM.

For the molecule `COCC(C(=O)Nc1ccc(Cl)cc1)N1CCN(c2ccnc3ccc(F)cc23)CC1` (single isomer, unassigned) [Example 135, N-(4-chlorophenyl)-2-(4-(6-fluoroquinolin-4-yl)piperazin-1-yl)-3-methoxypropanamide], the IC50 was greater than 250 nM.

Consider `CC(C(=O)O)c1ccc(C[C@@H](C(=O)Nc2ccc(Cl)cc2)[C@H]2CC[C@@H](c3ccnc4ccc(F)cc43)CC2)cc1` (single isomer, unassigned) [Example 138], for which the IC50 is less than 50 nM.

As for `C[C@H](C(=O)Nc1ccc(Cl)cc1)[C@H]1CC[C@@H](c2ccnc3ccnn32)CC1` (single isomer, unassigned) [Example 144a], the IC50 was less than 50 nM.

For the molecule `C[C@@H](C(=O)Nc1ccc(Cl)cc1)[C@H]1CC[C@@H](c2ccnc3ccnn32)CC1` (single isomer, unassigned) [Example 144b], the IC50 is greater than 250 nM.

For `C[C@H](C(=O)Nc1ccc(Cl)cc1)[C@H]1CC[C@H](c2ccnc3ccnn32)CC1` (single isomer, unassigned) [Example 144c], the IC50 was less than 250 nM.

Consider `C[C@@H](C(=O)Nc1ccc(Cl)cc1)[C@H]1CC[C@H](c2ccnc3ccnn32)CC1` (single isomer, unassigned) [Example 144d], for which the IC50 is greater than 250 nM.

Take `C[C@H](C(=O)Nc1ccc(Cl)cc1)[C@H]1CC[C@@H](c2ccnc3ncccc32)CC1` (single isomer, unassigned) [Example 148a]: the IC50 was greater than 250 nM.

Take `C[C@@H](C(=O)Nc1ccc(Cl)cc1)[C@H]1CC[C@@H](c2ccnc3ncccc32)CC1` (single isomer, unassigned) [Example 148b]: the IC50 was less than 50 nM.

In the case of `C[C@H](C(=O)Nc1ccc(Cl)cc1)[C@H]1CC[C@H](c2ccnc3ncccc32)CC1` (single isomer, unassigned) [Example 148c], the IC50 is less than 50 nM.

With `C[C@@H](C(=O)Nc1ccc(Cl)cc1)[C@H]1CC[C@H](c2ccnc3ncccc32)CC1` (single isomer, unassigned) [Example 148d], the IC50 was less than 250 nM.

In the case of `C[C@H](C(=O)Nc1ccc(Cl)cc1)[C@H]1CC[C@@H](c2ccnc3cn[nH]c32)CC1` (single isomer, unassigned) [Example 150a], the IC50 is less than 50 nM.

Consider `C[C@@H](C(=O)Nc1ccc(Cl)cc1)[C@H]1CC[C@@H](c2ccnc3cn[nH]c32)CC1` (single isomer, unassigned) [Example 150b], for which the IC50 is greater than 250 nM.

On to `C[C@H](C(=O)Nc1ccc(Cl)cc1)[C@H]1CC[C@H](c2ccnc3cn[nH]c32)CC1` (single isomer, unassigned) [Example 150c], for which the IC50 was greater than 250 nM.

On to `C[C@@H](C(=O)Nc1ccc(Cl)cc1)[C@H]1CC[C@H](c2ccnc3cn[nH]c32)CC1` (single isomer, unassigned) [Example 150d], for which the IC50 is less than 50 nM.

For `C[C@H](C(=O)Nc1ccc(Cl)cc1)[C@H]1CC[C@@H](c2ccnc3ccc(I)cc32)CC1` (single isomer, unassigned) [Example 152a], the IC50 is less than 50 nM.

For `C[C@@H](C(=O)Nc1ccc(Cl)cc1)[C@H]1CC[C@@H](c2ccnc3ccc(I)cc32)CC1` (single isomer, unassigned) [Example 152b], the IC50 was less than 50 nM.

As to `C[C@H](C(=O)Nc1ccc(Cl)cc1)[C@H]1CC[C@H](c2ccnc3ccc(I)cc32)CC1` (single isomer, unassigned) [Example 152c], the IC50 is less than 250 nM.

In the case of `C[C@@H](C(=O)Nc1ccc(Cl)cc1)[C@H]1CC[C@H](c2ccnc3ccc(I)cc32)CC1` (single isomer, unassigned) [Example 152d], the IC50 is less than 50 nM.

Take `CCCC(C(=O)Nc1ccc(Cl)cc1)N1CCN(c2ccnc3ccc(F)cc23)CC1` (single isomer, unassigned) [Example 245, N-(4-Chlorophenyl)-2-(4-(6-fluoroquinolin-4-yl)piperazin-1-yl)pentanamide]: the IC50 was less than 250 nM.

`CCCC(C(=O)Nc1ccc(Cl)cc1)N1CCN(c2ccnc3ccc(F)cc23)CC1` (single isomer, unassigned) [Example 246, N-(4-Chlorophenyl)-2-(4-(6-fluoroquinolin-4-yl)piperazin-1-yl)pentanamide]: the IC50 is greater than 250 nM.

`CCCC(C(=O)NC1(C)CCCCC1)N1CCN(c2ccnc3ccc(F)cc23)CC1` (single isomer, unassigned) [Example 248, 2-(4-(6-Fluoroquinolin-4-yl)piperazin-1-yl)-N-(1-methylcyclohexyl)pentanamide]: the IC50 was greater than 250 nM.

`CCCC(C(=O)NC1(C)CCCCC1)N1CCN(c2ccnc3ccc(F)cc23)CC1` (single isomer, unassigned) [Example 249, 2-(4-(6-Fluoroquinolin-4-yl)piperazin-1-yl)-N-(1-methylcyclohexyl)pentanamide]: the IC50 was less than 50 nM.

For `C[C@@H](C(=O)Nc1ccc(Cl)cc1)[C@H]1CC[C@@H](c2ccnc3c2ncn3C)CC1` (single isomer, unassigned) [Example 251a, N-(4-chlorophenyl)-2-(4-(3-methyl-3H-imidazo[4,5-b]pyridin-7-yl)cyclohexyl)propanamide], the IC50 is less than 50 nM.

On to `C[C@@H](C(=O)Nc1ccc(Cl)cc1)[C@H]1CC[C@@H](c2ccnc3c2ncn3C)CC1` (single isomer, unassigned) [Example 251b, N-(4-chlorophenyl)-2-(4-(3-methyl-3H-imidazo[4,5-b]pyridin-7-yl)cyclohexyl)propanamide], for which the IC50 was greater than 250 nM.

Regarding `C[C@@H](C(=O)Nc1ccc(Cl)cc1)[C@H]1CC[C@@H](c2ccnc3c2ncn3C)CC1` (single isomer, unassigned) [Example 251c, N-(4-chlorophenyl)-2-(4-(3-methyl-3H-imidazo[4,5-b]pyridin-7-yl)cyclohexyl)propanamide], the IC50 was less than 50 nM.

On to `C[C@@H](C(=O)Nc1ccc(Cl)cc1)[C@H]1CC[C@@H](c2ccnc3c2ncn3C)CC1` (single isomer, unassigned) [Example 251d, N-(4-chlorophenyl)-2-(4-(3-methyl-3H-imidazo[4,5-b]pyridin-7-yl)cyclohexyl)propanamide], for which the IC50 is greater than 250 nM.

As to `CC(C(=O)Nc1ccc(F)cc1)N1CCC(Oc2ccnc3ccc(F)cc23)CC1` (single isomer, unassigned) [compound 105], the IC50 was less than 50 nM.

As to `CC(C(=O)Nc1ccc(F)cc1)N1CCC(Oc2ccnc3ccc(F)cc23)CC1` (single isomer, unassigned) [compound 106], the IC50 was greater than 250 nM.

For `Cc1ccc(NC(=O)C(C)N2CCC(Oc3ccnc4ccc(F)cc34)CC2)cc1` (single isomer, unassigned) [compound 109], the IC50 is less than 50 nM.

With `Cc1ccc(NC(=O)C(C)N2CCC(Oc3ccnc4ccc(F)cc34)CC2)cc1` (single isomer, unassigned) [compound 110], the IC50 is greater than 250 nM.

Turning to `C[C@@H](C(=O)Nc1ccccc1)[C@H]1CC[C@@H](c2ccnc3ccc(F)cc32)CC1` [Example 58, (R)-2-((cis)-4-(6-fluoroquinolin-4-yl)cyclohexyl)-N-phenylpropanamide], the IC50 was less than 50 nM.

For `Cc1cc(F)ccc1NC(=O)[C@H](C)[C@H]1CC[C@@H](c2ccnc3ccc(F)cc32)CC1` [Example 59, (R)-N-(4-fluoro-2-methylphenyl)-2-((cis)-4-(6-fluoroquinolin-4-yl)cyclohexyl)propanamide], the IC50 is greater than 250 nM.

Take `C[C@@H](C(=O)Nc1ccc(C(F)(F)F)cc1)[C@H]1CC[C@@H](c2ccnc3ccc(F)cc32)CC1` [Example 60, (R)-2-((cis)-4-(6-fluoroquinolin-4-yl)cyclohexyl)-N-(4-(trifluoromethyl)phenyl)propanamide]: the IC50 is less than 50 nM.

`C[C@@H](C(=O)Nc1ccc2c(c1)OC(F)(F)O2)[C@H]1CC[C@@H](c2ccnc3ccc(F)cc32)CC1` [Example 61, (R)-N-(2,2-difluorobenzo[d][1,3]dioxol-5-yl)-2-((cis)-4-(6-fluoroquinolin-4-yl)cyclohexyl)propanamide]: the IC50 is less than 50 nM.

Source of the values: US20180282281A1, “IMMUNOREGULATORY AGENTS” (FLEXUS BIOSCIENCES, INC., priority 2014, published 2018).
